Measured values published in patent publication US12168067B2, “Photostable antioxidant cosmetic composition” (priority 2019, dated 2024).

Assay: Solution-based assay: residual trans-polydatin after irradiation with 1 molar equivalent of isomerization stabilizer
Assay type: physicochemical
Conditions: for Average of Relative Residual Trans-polydatin (percent): 0.5% by weight trans-polydatin in solution + 1 molar equivalent stabilizer, irradiated at 365 nm, 5 J total energy, HPLC-UV, per stabilizer; for Photo-stabilization of trans-polydatin in solution (in words): 365 nm, 5 J, comment on Table 2
Description: The stabilization of polydatin was evaluated in a solution-based assay where residual trans-polydatin percentage was determined after exposure to radiation. According to the experimental method, trans-polydatin was dissolved in an appropriate solvent at 0.5% by weight. To this solution was added 1 molar equivalent of an isomerization stabilizer. An aliquot of the resulting solution was diluted with methanol and the amount of trans-polydatin was quantified by HPLC-UV. The solution containing trans-polydatin and the additive was irradiated under controlled conditions at 365 nm using 5 J of total energy. An aliquot of the irradiated solution was diluted in methanol and the amount of trans-polydatin was quantified by HPLC-UV. The residual trans-polydatin was calculated by dividing the quantified amount of trans-polydatin obtained from the irradiated solution by the amount of trans-polydatin obtained from the non-irradiated solution and is expressed as a percentage. The relative residual is indicated for each photoisomerization stabilizer and is calculated as an average relative residual for classes of photoisomerization stabilizers where indicated.

With `O=c1cc(-c2ccc(O)cc2)oc2cc(O)cc(O)c12` [Apigenin] the “Average of Relative Residual Trans-polydatin (percent)” value was 66.7%.
With `Cc1cc(C(C)(C)C)c(O)c(C(C)(C)C)c1` [BHT, tert-butylhydroxytoluene] the “Average of Relative Residual Trans-polydatin (percent)” value was −3.1% and the “Photo-stabilization of trans-polydatin in solution (in words)” value (from here on “Photo-stabilization of trans-polydatin”) was “ineffective”.
For `O=c1cc(-c2ccccc2)oc2cc(O)c(O)c(O)c12` [Baicalein], the “Average of Relative Residual Trans-polydatin (percent)” value was 42.9%.
With `O=C(O)[C@H]1O[C@@H](Oc2cc3oc(-c4ccccc4)cc(=O)c3c(O)c2O)[C@H](O)[C@@H](O)[C@@H]1O` [Baicalin] the “Average of Relative Residual Trans-polydatin (percent)” value was 32.3%.
For `O=C(O[C@@H]1Cc2c(O)cc(O)cc2O[C@@H]1c1cc(O)c(O)c(O)c1)c1cc(O)c(O)c(O)c1` [Epigallocatechine gallate], the “Average of Relative Residual Trans-polydatin (percent)” value was 0.4%.
With `COc1cc(/C=C/C(=O)O)ccc1O` [Ferulic acid] the “Average of Relative Residual Trans-polydatin (percent)” value was 35.5%.
With `O=C(O)c1cc(O)c(O)c(O)c1` [Gallic acid] the “Average of Relative Residual Trans-polydatin (percent)” value was −0.3% and the “Photo-stabilization of trans-polydatin” value was “ineffective”.
For `COc1ccc([C@@H]2CC(=O)c3c(O)cc(O)cc3O2)cc1O` [Hesperetin], the “Average of Relative Residual Trans-polydatin (percent)” value was 30.6%.
With `COc1ccc([C@@H]2CC(=O)c3c(O)cc(O[C@@H]4O[C@H](CO[C@@H]5O[C@@H](C)[C@H](O)[C@@H](O)[C@H]5O)[C@@H](O)[C@H](O)[C@H]4O)cc3O2)cc1O` [Hesperidine] the “Average of Relative Residual Trans-polydatin (percent)” value was 41.6%.
For `O=c1cc(-c2ccc(O)c(O)c2)oc2cc(O)cc(O)c12` [Luteolin], the “Average of Relative Residual Trans-polydatin (percent)” value was 63.3%.
In the case of `O=C(O)C(O)c1ccccc1` (stereo not drawn) [Mandelic acid], the “Average of Relative Residual Trans-polydatin (percent)” value was −0.9% and the “Photo-stabilization of trans-polydatin” value was “ineffective”.
In the case of `NC(=O)c1cccnc1` [Niacinamide], the “Average of Relative Residual Trans-polydatin (percent)” value was −0.3% and the “Photo-stabilization of trans-polydatin” value was “ineffective”.
With `O=c1c(O)c(-c2ccc(O)c(O)c2)oc2cc(O)cc(O)c12` [Quercetin] the “Average of Relative Residual Trans-polydatin (percent)” value was 24.8%.
For `O=C1c2c(O)cc(O)cc2O[C@H](c2ccc(O)c(O)c2)[C@H]1O` [Taxifolin], the “Average of Relative Residual Trans-polydatin (percent)” value was 38.3%.
For `O=C1O[C@H]([C@@H](O)CO)C(O)=C1O[C@H]1O[C@H](CO)[C@@H](O)[C@H](O)[C@H]1O` [Vitamin CG], the “Average of Relative Residual Trans-polydatin (percent)” value was 6.9% and the “Photo-stabilization of trans-polydatin” value was “ineffective”.
In the case of `O=C(O)/C=C/c1ccc(O)cc1` [p-coumaric acid], the “Average of Relative Residual Trans-polydatin (percent)” value was 38.6%.
With Glycosyl Hesperidin the “Average of Relative Residual Trans-polydatin (percent)” value was 31.0%.
In the case of Vitamin E, the “Average of Relative Residual Trans-polydatin (percent)” value was 0.6% and the “Photo-stabilization of trans-polydatin” value was “ineffective”.
